Data on 24 compounds can be found in ChEMBL document CHEMBL4270595, “Design, synthesis, antiproliferative activity, molecular docking and cell cycle analysis of some novel (morpholinosulfonyl) isatins with potential EGFR inhibitory activity” (Eur J Med Chem, 2018).

The source made the active and inactive calls. The rule behind the calls is not given here.

The subject of experiment [1] is HCT-116. Briefly: Cytotoxicity against human HCT116 cells after 24 hrs by SRB assay. Format: functional, cell-based. The conditions noted are these: HCT-116, 24 h. A general note: The SRB assay estimates cell density from bound dye.
The nature of experiment [2]: Cytotoxicity against human Caco cells after 24 hrs by SRB assay. It counts as functional, cell-based.
Experiment [3] deals with HepG2. Briefly: Cytotoxicity against human HepG2 cells after 24 hrs by SRB assay. Format: functional, cell-based. The conditions noted are these: HepG2, 24 h.
The test system of experiment [4] is WI-38. Briefly: Cytotoxicity against human WI38 cells after 24 hrs by SRB assay. It counts as cell-based. Particulars: WI-38, 24 h.
The subject of experiment [5] is MCF7. In words: Cytotoxicity against human MCF7 cells after 24 hrs by SRB assay. Format: functional, cell-based. The conditions noted are these: MCF7, 24 h.
Experiment [6] is described as follows: Inhibition of recombinant human FGFR preincubated for 5 mins followed by ATP addition and measured after 30 mind by HTRF assay. For orientation: In TR-FRET formats the signal depends on donor and acceptor labels being close together.
Experiment [7] addresses T1, Epidermal growth factor receptor (Homo sapiens, UniProt P00533). Briefly: Inhibition of EGFR in human HepG2 cells. Format: cell-based.
The subject of experiment [8] is HepG2. In words: Cell cycle arrest in human HepG2 cells assessed as accumulation of cells at S phase at 10 uM after 24 hrs by flow cytometric analysis (reference value: 31.31%). Format: functional. On the technique in general: In flow cytometry, cells or beads pass a laser one at a time.
For experiment [9], the system named is HepG2. Briefly: Cell cycle arrest in human HepG2 cells assessed as accumulation of cells at G2/M phase at 10 uM after 24 hrs by flow cytometric analysis (reference value: 16.38%). It counts as functional.
In experiment [10] the test system is HepG2. Briefly: Induction of apoptosis in human HepG2 cells assessed as necrotic cells at 10 uM after 24 hrs by Annexin V-FITC/ propidium iodide staining-based flow cytometric analysis (reference value: 1.28%). Format: functional.
Experiment [11] concerns HepG2. Briefly: Induction of apoptosis in human HepG2 cells assessed as viable cells at 10 uM after 24 hrs by Annexin V-FITC/ propidium iodide staining-based flow cytometric analysis (reference value: 96.09%). It counts as functional. Particulars: HepG2, 24 h, read-out: Activity.
In experiment [12] the test system is HepG2. Briefly: Cell cycle arrest in human HepG2 cells assessed as accumulation of cells at pre-G1 phase at 10 uM after 24 hrs by flow cytometric analysis (reference value: 2.04%). It counts as functional.
In experiment [13] the test system is HepG2. In words: Induction of apoptosis in human HepG2 cells assessed as early apoptotic cells at 10 uM after 24 hrs by Annexin V-FITC/ propidium iodide staining-based flow cytometric analysis (reference value: 0.51%). It counts as functional.
Experiment [14] has as its system HepG2. In words: Cell cycle arrest in human HepG2 cells assessed as accumulation of cells at G0/G1 phase at 10 uM after 24 hrs by flow cytometric analysis (reference value: 52.31%). It counts as functional.
Experiment [15] concerns HepG2. In words: Induction of apoptosis in human HepG2 cells assessed as late apoptotic cells at 10 uM after 24 hrs by Annexin V-FITC/ propidium iodide staining-based flow cytometric analysis (reference value: […]). Format: functional.
Experiment [16] addresses Receptor tyrosine-protein kinase erbB-2 (Homo sapiens, UniProt P04626). In words: Inhibition of recombinant human GST-tagged HER2 (676-end) expressed in baculovirus infected Sf9 insect cells preincubated for 5 mins followed by ATP addition and measured after 30 mins by HTRF assay.
Experiment [17] addresses T1, Epidermal growth factor receptor. Briefly: Inhibition of EGFR in human HepG2 cells assessed as suppression of ERK phosphorylation up to 2 uM after 8 hrs by Western blot analysis. It counts as cell-based.
In experiment [18] the target is Vascular endothelial growth factor receptor (Homo sapiens, UniProt P17948+P35916+P35968). It counts as cell-based. Particulars: sf9.
Description: Inhibition of GST-tagged recombinant human VEGFR (789-end) expressed in baculovirus infected Sf9 insect cells preincubated for 5 mins followed by ATP addition and measured after 30 mins by HTRF assay
The target of experiment [19] is Epidermal growth factor receptor (Homo sapiens, UniProt P00533, T790M). Briefly: biochemical. Format: cell-based, Sf21.
Chain of Epidermal growth factor receptor (Homo sapiens, UniProt P00533, T790M) (P00533 25-1210 T790M limits assumed): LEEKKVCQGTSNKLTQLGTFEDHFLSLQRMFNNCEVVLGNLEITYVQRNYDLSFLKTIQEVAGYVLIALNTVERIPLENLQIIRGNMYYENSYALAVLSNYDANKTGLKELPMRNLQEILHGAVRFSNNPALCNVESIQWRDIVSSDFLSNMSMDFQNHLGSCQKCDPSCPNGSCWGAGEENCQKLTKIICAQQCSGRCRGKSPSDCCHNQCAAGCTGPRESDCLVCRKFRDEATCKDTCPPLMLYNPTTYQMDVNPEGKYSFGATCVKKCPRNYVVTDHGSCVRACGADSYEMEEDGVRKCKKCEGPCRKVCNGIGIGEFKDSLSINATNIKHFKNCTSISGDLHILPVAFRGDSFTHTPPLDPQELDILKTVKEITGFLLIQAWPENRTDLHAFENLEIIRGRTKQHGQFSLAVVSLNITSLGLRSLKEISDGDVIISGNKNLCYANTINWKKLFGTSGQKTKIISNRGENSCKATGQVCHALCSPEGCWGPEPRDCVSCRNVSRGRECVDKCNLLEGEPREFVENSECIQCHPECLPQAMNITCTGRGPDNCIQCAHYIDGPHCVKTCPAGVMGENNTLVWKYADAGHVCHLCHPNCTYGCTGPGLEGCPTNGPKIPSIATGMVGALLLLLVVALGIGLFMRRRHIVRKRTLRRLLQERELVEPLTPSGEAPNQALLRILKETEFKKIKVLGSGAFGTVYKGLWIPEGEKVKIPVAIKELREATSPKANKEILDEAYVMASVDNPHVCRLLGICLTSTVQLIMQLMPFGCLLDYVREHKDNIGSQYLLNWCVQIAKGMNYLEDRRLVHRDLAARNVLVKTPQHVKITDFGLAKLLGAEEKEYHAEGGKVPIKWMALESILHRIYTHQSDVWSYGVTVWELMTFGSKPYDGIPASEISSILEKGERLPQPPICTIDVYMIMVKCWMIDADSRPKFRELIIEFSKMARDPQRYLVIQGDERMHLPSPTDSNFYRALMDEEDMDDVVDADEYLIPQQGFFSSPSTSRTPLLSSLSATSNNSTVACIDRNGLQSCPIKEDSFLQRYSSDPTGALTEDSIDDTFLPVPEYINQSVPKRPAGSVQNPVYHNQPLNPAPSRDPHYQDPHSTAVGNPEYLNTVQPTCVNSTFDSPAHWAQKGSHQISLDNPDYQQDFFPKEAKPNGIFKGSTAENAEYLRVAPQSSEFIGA
Experiment [20] deals with Epidermal growth factor receptor (Homo sapiens, UniProt P00533, L858R). In words: Inhibition of recombinant human EGFR L858R mutant expressed in baculovirus infected insect cells preincubated for 5 mins followed by ATP addition and measured after 30 mins by HTRF assay. It counts as cell-based.
Chain of Epidermal growth factor receptor (Homo sapiens, UniProt P00533, L858R) (P00533 25-1210 L858R limits assumed): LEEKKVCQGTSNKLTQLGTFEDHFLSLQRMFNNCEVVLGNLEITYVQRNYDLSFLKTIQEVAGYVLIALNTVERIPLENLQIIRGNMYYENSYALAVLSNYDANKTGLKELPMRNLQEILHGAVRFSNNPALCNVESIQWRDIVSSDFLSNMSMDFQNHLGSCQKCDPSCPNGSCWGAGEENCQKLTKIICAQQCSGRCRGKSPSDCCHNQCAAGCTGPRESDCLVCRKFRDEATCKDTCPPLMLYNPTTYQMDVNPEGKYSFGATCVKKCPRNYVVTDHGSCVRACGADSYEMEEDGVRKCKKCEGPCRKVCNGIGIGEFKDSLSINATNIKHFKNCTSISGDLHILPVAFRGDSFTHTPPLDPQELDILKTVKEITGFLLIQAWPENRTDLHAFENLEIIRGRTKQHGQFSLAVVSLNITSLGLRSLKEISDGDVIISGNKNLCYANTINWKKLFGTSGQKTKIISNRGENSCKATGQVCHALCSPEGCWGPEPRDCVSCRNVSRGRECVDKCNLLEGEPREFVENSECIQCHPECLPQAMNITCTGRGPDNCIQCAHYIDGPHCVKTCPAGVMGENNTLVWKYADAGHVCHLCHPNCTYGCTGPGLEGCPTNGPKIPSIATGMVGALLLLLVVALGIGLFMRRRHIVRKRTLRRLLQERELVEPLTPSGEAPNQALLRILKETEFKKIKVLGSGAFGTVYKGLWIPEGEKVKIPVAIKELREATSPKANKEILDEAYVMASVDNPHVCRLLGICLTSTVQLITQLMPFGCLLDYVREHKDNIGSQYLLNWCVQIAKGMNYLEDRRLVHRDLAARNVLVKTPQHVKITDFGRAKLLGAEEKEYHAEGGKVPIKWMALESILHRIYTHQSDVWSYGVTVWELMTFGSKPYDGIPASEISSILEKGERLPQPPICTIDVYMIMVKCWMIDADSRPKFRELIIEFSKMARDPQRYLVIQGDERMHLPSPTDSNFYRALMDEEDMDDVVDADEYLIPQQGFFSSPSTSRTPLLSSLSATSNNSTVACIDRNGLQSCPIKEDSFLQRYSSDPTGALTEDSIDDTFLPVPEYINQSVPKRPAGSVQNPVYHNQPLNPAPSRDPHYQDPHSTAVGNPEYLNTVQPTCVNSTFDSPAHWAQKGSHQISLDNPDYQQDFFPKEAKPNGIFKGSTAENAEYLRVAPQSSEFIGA
The target in experiment [21] is T1, Epidermal growth factor receptor. Briefly: Inhibition of EGFR in human HepG2 cells assessed as suppression of EGFR phosphorylation after 8 hrs by Western blot analysis. Format: cell-based.

Usually IC50 stands for the concentration that inhibits the measured activity by half.

T1 sequence (P00533 whole entry): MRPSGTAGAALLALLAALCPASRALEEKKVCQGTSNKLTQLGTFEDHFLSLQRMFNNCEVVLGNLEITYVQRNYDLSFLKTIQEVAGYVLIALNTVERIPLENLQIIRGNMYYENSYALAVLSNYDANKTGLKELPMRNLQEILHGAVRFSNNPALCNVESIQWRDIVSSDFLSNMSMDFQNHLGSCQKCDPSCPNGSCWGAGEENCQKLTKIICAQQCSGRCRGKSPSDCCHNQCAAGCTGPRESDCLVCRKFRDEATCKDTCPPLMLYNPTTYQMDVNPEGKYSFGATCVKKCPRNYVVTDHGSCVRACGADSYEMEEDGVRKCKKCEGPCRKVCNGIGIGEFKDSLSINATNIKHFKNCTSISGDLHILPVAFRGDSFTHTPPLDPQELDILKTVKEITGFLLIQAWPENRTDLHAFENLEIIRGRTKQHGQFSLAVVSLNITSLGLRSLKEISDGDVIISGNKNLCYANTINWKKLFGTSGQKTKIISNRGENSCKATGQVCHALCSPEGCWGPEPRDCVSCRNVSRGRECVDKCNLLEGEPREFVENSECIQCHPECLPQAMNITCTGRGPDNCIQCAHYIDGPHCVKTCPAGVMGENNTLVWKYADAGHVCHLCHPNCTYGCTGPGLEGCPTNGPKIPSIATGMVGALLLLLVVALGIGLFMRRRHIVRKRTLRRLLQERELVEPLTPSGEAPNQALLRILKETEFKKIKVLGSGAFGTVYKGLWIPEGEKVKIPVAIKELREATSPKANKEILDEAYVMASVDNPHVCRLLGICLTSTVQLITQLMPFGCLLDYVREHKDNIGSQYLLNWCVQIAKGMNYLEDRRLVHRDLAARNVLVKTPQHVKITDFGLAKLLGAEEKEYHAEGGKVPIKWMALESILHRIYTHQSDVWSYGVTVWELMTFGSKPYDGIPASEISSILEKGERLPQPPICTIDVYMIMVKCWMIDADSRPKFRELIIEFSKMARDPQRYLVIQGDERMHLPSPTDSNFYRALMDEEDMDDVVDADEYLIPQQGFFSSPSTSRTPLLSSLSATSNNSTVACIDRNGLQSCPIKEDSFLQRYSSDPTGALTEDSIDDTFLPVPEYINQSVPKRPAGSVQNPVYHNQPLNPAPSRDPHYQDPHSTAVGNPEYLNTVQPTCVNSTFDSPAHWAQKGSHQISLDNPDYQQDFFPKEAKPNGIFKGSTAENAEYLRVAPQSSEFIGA
Chain of Receptor tyrosine-protein kinase erbB-2 (P04626 whole entry): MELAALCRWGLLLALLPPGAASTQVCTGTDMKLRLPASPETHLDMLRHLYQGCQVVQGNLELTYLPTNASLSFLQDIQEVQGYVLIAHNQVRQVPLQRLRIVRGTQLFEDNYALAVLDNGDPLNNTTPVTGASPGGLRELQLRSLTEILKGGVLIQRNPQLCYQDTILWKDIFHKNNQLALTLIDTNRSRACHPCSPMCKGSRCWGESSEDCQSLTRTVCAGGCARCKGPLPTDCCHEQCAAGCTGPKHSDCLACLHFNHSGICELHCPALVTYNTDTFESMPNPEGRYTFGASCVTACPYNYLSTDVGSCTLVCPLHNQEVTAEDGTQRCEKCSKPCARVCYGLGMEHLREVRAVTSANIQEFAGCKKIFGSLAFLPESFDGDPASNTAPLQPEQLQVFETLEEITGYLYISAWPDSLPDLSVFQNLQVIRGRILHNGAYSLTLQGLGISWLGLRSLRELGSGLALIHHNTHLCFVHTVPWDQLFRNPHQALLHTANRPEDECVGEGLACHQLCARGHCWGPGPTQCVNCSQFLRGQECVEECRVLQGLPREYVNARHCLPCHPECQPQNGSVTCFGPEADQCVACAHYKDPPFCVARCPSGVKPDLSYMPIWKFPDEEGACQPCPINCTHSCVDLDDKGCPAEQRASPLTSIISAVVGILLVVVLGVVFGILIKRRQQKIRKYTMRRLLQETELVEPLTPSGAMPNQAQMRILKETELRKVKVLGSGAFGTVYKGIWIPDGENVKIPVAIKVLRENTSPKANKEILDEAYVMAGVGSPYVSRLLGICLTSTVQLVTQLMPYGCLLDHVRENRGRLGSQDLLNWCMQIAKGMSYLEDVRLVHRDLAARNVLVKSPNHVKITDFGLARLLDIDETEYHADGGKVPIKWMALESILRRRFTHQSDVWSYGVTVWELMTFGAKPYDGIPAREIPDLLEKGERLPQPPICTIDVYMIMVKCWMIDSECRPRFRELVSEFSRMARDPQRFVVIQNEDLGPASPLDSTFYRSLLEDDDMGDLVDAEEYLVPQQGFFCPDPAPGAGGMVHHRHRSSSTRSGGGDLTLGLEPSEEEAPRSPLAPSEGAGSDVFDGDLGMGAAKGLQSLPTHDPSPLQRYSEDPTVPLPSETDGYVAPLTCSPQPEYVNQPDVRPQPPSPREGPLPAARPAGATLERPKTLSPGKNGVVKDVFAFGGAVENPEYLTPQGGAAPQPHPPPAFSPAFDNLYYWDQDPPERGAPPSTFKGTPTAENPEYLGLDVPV

Turning to `COc1cccc2c1C(=O)c1c(O)c3c(c(O)c1C2=O)C[C@@](O)(C(=O)CO)C[C@@H]3O[C@H]1C[C@H](N)[C@H](O)[C@H](C)O1` [DOXORUBICIN], the IC50 in [1] turned out to be 8.29 µM; in experiment [2], 5.91 µM; in [3], 7.46 µM.
Turning to `O=C1Nc2ccc(S(=O)(=O)N3CCOCC3)cc2/C1=N/c1cccc(C(F)(F)F)c1`, the IC50 in experiment [4] worked out at 226 µM; in experiment [1] it was 15.9 µM; in experiment [2], 21.2 µM; in experiment [5], 41.1 µM; in experiment [3], 14.3 µM.
With `CC(=O)N/N=C1\C(=O)Nc2ccc(S(=O)(=O)N3CCOCC3)cc21`, the IC50 in experiment [4] is 325 µM; in experiment [1], 29 µM; in experiment [2] it was 18.4 µM; in experiment [5] it was 56 µM; in experiment [3] it was 27.5 µM.
For `O=C1Nc2ccc(S(=O)(=O)N3CCOCC3)cc2C1=O`, the IC50 in experiment [4] is 588 µM; in experiment [1] it was 60 µM; in experiment [2], 45.6 µM; in [5], 67.9 µM; in experiment [3] it was 28.6 µM.
On the same counts, the results for `N/N=C1\C(=O)Nc2ccc(S(=O)(=O)N3CCOCC3)cc21` are 391 µM, 36.3 µM, 49.6 µM, 46.8 µM and 32.4 µM.
For `C#Cc1cccc(Nc2ncnc3cc(OCCOC)c(OCCOC)cc23)c1` [ERLOTINIB], in experiment [6], the IC50 was determined as 0.03 µM.
Turning to `O=C1Nc2ccc(S(=O)(=O)N3CCOCC3)cc2/C1=N/c1ccc(/N=C2\C(=O)Nc3ccc(S(=O)(=O)N4CCOCC4)cc32)cc1`, the IC50 was found to be 203 µM in experiment [4]; 7.48 µM in experiment [1]; 1.18 µM in [7]; 9.16 µM in experiment [2]; 10.9 µM in [5]; 8.84 µM in [3].
Take `CC(=O)c1cccc(/N=C2\C(=O)Nc3ccc(S(=O)(=O)N4CCOCC4)cc32)c1`: the IC50 turned out to be 177 µM in [4]; 29 µM in [1]; 21.4 µM in experiment [2]; 39.2 µM in experiment [5]; 28.6 µM in [3].
Regarding `O=C1Nc2ccc(S(=O)(=O)N3CCOCC3)cc2/C1=N/NC(=O)c1ccccc1`, the IC50 in [4] stood at 295 µM; in experiment [1], 28.9 µM; in experiment [2], 36.2 µM; in experiment [5], 414 µM; in experiment [3], 18.1 µM.
On the same counts, the results for `COC(=O)c1ccccc1/N=C1\C(=O)Nc2ccc(S(=O)(=O)N3CCOCC3)cc21` are 228 µM, 18.7 µM, 23.5 µM, 31.4 µM and 14 µM.
On the same counts, the results for `O=S(=O)(c1ccc2[nH]c3nc4ccccc4nc3c2c1)N1CCOCC1` are 418 µM, 19.2 µM, 18.9 µM, 40.8 µM and 27.2 µM.
As to `COc1ccc(C2=C(C#N)C3=NC4=Nc5ccc(S(=O)(=O)N6CCOCC6)cc5C4=NC3C(O)=C2C#N)cc1` (stereo not drawn), the IC50 is 324 µM in experiment [4]; 9.73 µM in experiment [1]; 0.108 µM in experiment [7]; 7.24 µM in [2]; 11.9 µM in experiment [5]; 7.3 µM in experiment [3].
Turning to `O=C1Nc2ccc(S(=O)(=O)N3CCOCC3)cc2/C1=N/c1ccc(Cl)cc1`, the IC50 in experiment [4] was found to be 468 µM; in experiment [1], 24.3 µM; in [2] it was 23.7 µM; in [5] it was 44.3 µM; in [3], 11.8 µM.
The like results for `O=C1Nc2ccc(S(=O)(=O)N3CCOCC3)cc2/C1=N/c1ccc(Br)cc1` were, in that order, 372 µM, 15.3 µM, 29.4 µM, 44.8 µM and 11.9 µM.
As for `O=C1Nc2ccc(S(=O)(=O)N3CCOCC3)cc2/C1=N/c1ccc(O)cc1`, the concentration for half-maximal inhibition (IC50) is 259 µM in experiment [4]; 27.3 µM in [1]; 0.751 µM in experiment [7]; 17.8 µM in [2]; 52.7 µM in [5]; 10.4 µM in experiment [3].
Consider `Cc1ccc(/N=C2\C(=O)Nc3ccc(S(=O)(=O)N4CCOCC4)cc32)cc1`, for which the IC50 is 309 µM in experiment [4]; 18.9 µM in experiment [1]; 33 µM in experiment [2]; 55.9 µM in experiment [5]; 12.8 µM in [3].
Regarding `O=C1Nc2ccc(S(=O)(=O)N3CCOCC3)cc2/C1=N/Nc1ccccc1`, the Activity turned out to be 14.77% in [8]; 48.31% in experiment [9]; 2.69% in experiment [10]; 16.46% in [12]; 4.28% in [13]; 38.92% in [14]. Further, in experiment [15], the Activity turned out to be 9.49%. Also, the IC50 in experiment [4] came out at 262 µM; in experiment [1] it was 10.5 µM; in experiment [7], 0.046 µM; in experiment [2] it was 20 µM; in experiment [5], 30.3 µM; in experiment [3] it was 15.6 µM. Moreover, in [11], the viability at 10 µM was 81.4%.
Turning to `O=C1Nc2ccc(S(=O)(=O)N3CCOCC3)cc2/C1=N/NS(=O)(=O)c1ccccc1`, the IC50 in experiment [4] is 302 µM; in experiment [1] it was 13.3 µM; in experiment [2] it was 16.4 µM; in experiment [5] it was 25.3 µM; in experiment [3], 23.9 µM.
On to `CS(=O)(=O)CCNCc1ccc(-c2ccc3ncnc(Nc4ccc(OCc5cccc(F)c5)c(Cl)c4)c3c2)o1` [LAPATINIB], for which the IC50 in experiment [1] is 5.92 µM; in [2], 12.1 µM; in [5] it was 5.02 µM; in experiment [3] it was 11.7 µM.
For `COc1ccc(-c2c(C#N)c(N)n(/N=C3\C(=O)Nc4ccc(S(=O)(=O)N5CCOCC5)cc43)c(=O)c2C#N)cc1`, the IC50 came out at 224 µM in experiment [4]; 18.1 µM in [1]; 1.93 µM in [7]; 10.3 µM in [2]; 33.4 µM in experiment [5]; 15 µM in experiment [3].
For the compound `N#CCC(=O)N/N=C1\C(=O)Nc2ccc(S(=O)(=O)N3CCOCC3)cc21`, the Activity in experiment [8] was 15.58%; in experiment [9] it was 44.11%; in [10], 3.41%; in experiment [12], 14.09%; in experiment [13] it was 3.17%; in experiment [14] it was 40.31%. In experiment [15], the Activity is 7.51%. Moreover, the IC50 in [4] turned out to be 302 µM; in experiment [16], 0.24 µM; in experiment [1], 10.3 µM; in experiment [7], 0.023 µM; in experiment [18], 0.276 µM; in [19], 0.137 µM. The IC50 in experiment [2] is 9.66 µM; in experiment [6], 0.378 µM; in experiment [20], 0.0338 µM; in experiment [5] it was 27.7 µM; in experiment [3], 7.53 µM. The inhibition result in [17] was “Active”. Besides, the viability at 10 µM in [11] came to 83.6%. Besides, the inhibition entry in experiment [21] was “Dose-dependent effect”.
For `N=c1oc2ccccc2cc1C(=O)N/N=C1\C(=O)Nc2ccc(S(=O)(=O)N3CCOCC3)cc21`, the IC50 in experiment [4] was 132 µM; in [1], 6.75 µM; in experiment [7] it was 0.205 µM; in experiment [2], 8.21 µM; in [5], 20.8 µM; in [3], 7.82 µM.
In the case of `Cc1ccc(S(=O)(=O)N/N=C2\C(=O)Nc3ccc(S(=O)(=O)N4CCOCC4)cc32)cc1`, the IC50 in [4] was determined as 261 µM; in [1] it was 23.4 µM; in experiment [2], 14.6 µM; in experiment [5] it was 38.4 µM; in experiment [3] it was 24.7 µM.
In the case of `O=C1Nc2ccc(S(=O)(=O)N3CCOCC3)cc2/C1=N/c1ccc(C(=O)O)cc1`, the IC50 amounted to 313 µM in experiment [4]; 23.6 µM in experiment [1]; 25.7 µM in experiment [2]; 26.7 µM in [5]; 23.1 µM in [3].
